{
  "source": "paper PMC7501227",
  "about": "“Flatfishes colonised freshwater environments by acquisition of various DHA biosynthetic pathways” (Communications Biology, 2020)",
  "key": {"Elovl5 (H. mentalis)": {"molecular_target": "T1, Elovl5 (H. mentalis) (Hypoclinemus mentalis, UniProt A0A7G1GDF4)", "T1 construct": "full ORF in pYES2, expressed in S. cerevisiae INVSc1", "T1 sequence (A0A7G1GDF4 1-294)": "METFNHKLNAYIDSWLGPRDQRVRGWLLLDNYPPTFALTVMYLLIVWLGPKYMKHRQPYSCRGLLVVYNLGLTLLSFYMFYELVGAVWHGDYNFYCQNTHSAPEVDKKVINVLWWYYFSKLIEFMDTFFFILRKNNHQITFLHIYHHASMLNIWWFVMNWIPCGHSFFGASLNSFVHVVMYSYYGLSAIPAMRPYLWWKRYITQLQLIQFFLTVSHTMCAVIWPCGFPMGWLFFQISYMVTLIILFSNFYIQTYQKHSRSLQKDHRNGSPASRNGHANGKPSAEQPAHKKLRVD", "assay": "yeast expression, GC of FAMEs, % conversion", "assay_type": "cell-based", "conditions": "elongation of C18 substrate; yeast culture 48 h, 30 °C"}, "Elovl5 (G. melas)": {"molecular_target": "T2, Elovl5 (G. melas) (Gymnachirus melas, UniProt A0A7G1GDB9)", "T2 construct": "full ORF in pYES2, expressed in S. cerevisiae INVSc1", "T2 sequence (A0A7G1GDB9 1-294)": "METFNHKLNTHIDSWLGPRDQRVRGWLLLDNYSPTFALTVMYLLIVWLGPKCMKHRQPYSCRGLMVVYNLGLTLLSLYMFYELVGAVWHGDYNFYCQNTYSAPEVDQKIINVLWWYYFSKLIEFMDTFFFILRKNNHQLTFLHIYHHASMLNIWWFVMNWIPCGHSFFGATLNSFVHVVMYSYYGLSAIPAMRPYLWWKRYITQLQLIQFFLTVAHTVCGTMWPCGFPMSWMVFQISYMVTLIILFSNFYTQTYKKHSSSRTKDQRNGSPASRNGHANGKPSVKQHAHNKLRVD", "assay": "yeast expression, GC of FAMEs, % conversion", "assay_type": "cell-based", "conditions": "elongation of C18 substrate; yeast culture 48 h, 30 °C"}, "Elovl5 (T. maculatus)": {"molecular_target": "T3, Elovl5 (T. maculatus) (Trinectes maculatus, UniProt A0A7G1GDF5)", "T3 construct": "full ORF in pYES2, expressed in S. cerevisiae INVSc1", "T3 sequence (A0A7G1GDF5 1-294)": "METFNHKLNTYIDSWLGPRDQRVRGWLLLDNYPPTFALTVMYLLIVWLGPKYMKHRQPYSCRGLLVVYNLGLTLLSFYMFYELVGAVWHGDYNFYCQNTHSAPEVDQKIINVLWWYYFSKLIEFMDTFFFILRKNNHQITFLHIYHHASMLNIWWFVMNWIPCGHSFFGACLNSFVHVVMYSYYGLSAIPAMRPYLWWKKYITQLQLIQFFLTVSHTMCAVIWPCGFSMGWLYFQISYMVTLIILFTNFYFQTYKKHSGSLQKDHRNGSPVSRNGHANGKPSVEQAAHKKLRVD", "assay": "yeast expression, GC of FAMEs, % conversion", "assay_type": "cell-based", "conditions": "elongation of C18 substrate; yeast culture 48 h, 30 °C"}, "Fads2 (A. finis) [1]": {"molecular_target": "T4, Fads2 (A. finis) (Apionichthys finis, UniProt A0A7G1GDB3)", "T4 sequence (A0A7G1GDB3 entry or part of it)": "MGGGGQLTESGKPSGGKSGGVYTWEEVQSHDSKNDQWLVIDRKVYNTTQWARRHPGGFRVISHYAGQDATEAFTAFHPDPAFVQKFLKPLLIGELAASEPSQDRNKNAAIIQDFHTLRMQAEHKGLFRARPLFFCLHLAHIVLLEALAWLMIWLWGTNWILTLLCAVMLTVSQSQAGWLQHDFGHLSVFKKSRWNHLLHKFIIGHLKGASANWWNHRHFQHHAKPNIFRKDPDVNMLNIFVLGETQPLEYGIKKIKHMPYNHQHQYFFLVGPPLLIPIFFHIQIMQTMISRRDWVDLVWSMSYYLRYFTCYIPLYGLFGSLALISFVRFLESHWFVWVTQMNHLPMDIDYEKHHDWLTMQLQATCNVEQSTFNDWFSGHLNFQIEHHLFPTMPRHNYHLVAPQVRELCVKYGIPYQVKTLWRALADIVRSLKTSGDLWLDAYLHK", "assay": "yeast co-expression with zebrafish Elovl2, GC of FAMEs", "assay_type": "cell-based", "set-up": "full ORF in pYES2, expressed in S. cerevisiae INVSc1", "conditions": "Δ6 desaturation; 24:5n-3 formed in the yeast from 22:5n-3 by zebrafish Elovl2; normalised to 18:3n-3"}, "Fads2 (A. finis) [2]": {"molecular_target": "T4, Fads2 (A. finis)", "conditions": "Δ6 desaturation; yeast culture 48 h, 30 °C"}, "Fads2a (H. mentalis)": {"molecular_target": "T5, Fads2a (H. mentalis) (Hypoclinemus mentalis, UniProt A0A7G1GDA4)", "T5 construct": "full ORF in pYES2, 442 residues, expressed in S. cerevisiae INVSc1", "T5 sequence (A0A7G1GDA4 entry or part of it)": "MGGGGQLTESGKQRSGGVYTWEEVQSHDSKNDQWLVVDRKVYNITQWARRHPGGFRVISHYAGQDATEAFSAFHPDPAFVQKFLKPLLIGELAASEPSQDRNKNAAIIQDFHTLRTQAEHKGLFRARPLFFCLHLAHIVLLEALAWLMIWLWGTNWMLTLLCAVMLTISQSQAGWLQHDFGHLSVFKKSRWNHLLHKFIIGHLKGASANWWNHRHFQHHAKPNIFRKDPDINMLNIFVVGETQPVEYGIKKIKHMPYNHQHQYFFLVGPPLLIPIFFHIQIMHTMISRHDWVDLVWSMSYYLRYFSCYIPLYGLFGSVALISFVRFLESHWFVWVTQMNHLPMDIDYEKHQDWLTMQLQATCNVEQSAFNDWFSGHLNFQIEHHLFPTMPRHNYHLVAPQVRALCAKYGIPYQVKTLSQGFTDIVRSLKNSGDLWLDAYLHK", "assay": "yeast expression, GC of FAMEs, % conversion", "assay_type": "cell-based", "conditions": "Δ6 desaturation; yeast culture 48 h, 30 °C"}},
  "data": [
    {"smiles": "CC/C=C\\C/C=C\\C/C=C\\C/C=C\\CCCCC(=O)O", "note": "[18:4n − 3]", "values": [
      {"measurement": "yeast expression, GC of FAMEs, % conversion", "setting": "Elovl5 (H. mentalis)", "value": "The Elovl5 performed elongations of C18 to C22 substrates"},
      {"measurement": "yeast expression, GC of FAMEs, % conversion", "setting": "Elovl5 (G. melas)", "value": "The G. melas Elovl5 exhibited activity towards C18 to C22 substrates"},
      {"measurement": "yeast expression, GC of FAMEs, % conversion", "setting": "Elovl5 (T. maculatus)", "value": "The Elovl5 showed elongase activities towards C18 to C22 substrates"}
    ]},
    {"smiles": "CC/C=C\\C/C=C\\C/C=C\\C/C=C\\C/C=C\\CCCCCCCC(=O)O", "note": "[24:5n − 3]", "values": [
      {"measurement": "yeast co-expression with zebrafish Elovl2, GC of FAMEs", "setting": "Fads2 (A. finis) [1]", "value": "desaturation at the highest efficiency among the four species"}
    ]},
    {"smiles": "CC/C=C\\C/C=C\\C/C=C\\CCCCCCCC(=O)O", "note": "[α-linolenic acid]", "values": [
      {"measurement": "yeast expression, GC of FAMEs, % conversion", "setting": "Fads2 (A. finis) [2]", "value": "The Fads2 isolated from A. finis showed"},
      {"measurement": "yeast expression, GC of FAMEs, % conversion", "setting": "Fads2a (H. mentalis)", "value": "The two Fads2, namely Fads2a and Fads2b, showed distinct activities"}
    ]}
  ]
}
